We go through 1 compound from ChEMBL document CHEMBL1139383, “Carbonic anhydrase inhibitors. Comparison of chlorthalidone and indapamide X-ray crystal structures in adducts with isozyme II: when three water molecules and the keto-enol tautomerism make the difference” (J Med Chem, 2009).

pKi: −log10 of the molar value.

The assay concerns the target Carbonic anhydrase 3 (Homo sapiens) (UniProt P07451).

Chain of Carbonic anhydrase 3 (Homo sapiens) (P07451 whole entry): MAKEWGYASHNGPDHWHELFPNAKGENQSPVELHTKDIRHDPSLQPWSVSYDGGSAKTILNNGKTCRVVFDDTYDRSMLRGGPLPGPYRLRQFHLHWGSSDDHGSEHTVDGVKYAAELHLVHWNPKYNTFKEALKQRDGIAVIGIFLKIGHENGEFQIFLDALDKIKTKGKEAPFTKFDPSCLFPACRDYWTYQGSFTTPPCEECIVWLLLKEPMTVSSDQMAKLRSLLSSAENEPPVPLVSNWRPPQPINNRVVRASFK
Description: Inhibition of human recombinant CA3 by stopped flow CO2 hydration assay

On to `NS(=O)(=O)c1cc(C2(O)NC(=O)c3ccccc32)ccc1Cl` (stereo unspecified), for which the pKi is 4.96.

By pKi is commonly meant the Ki on a negative log10 scale, so that one unit is a factor of ten.
